Paper PMC6940896, “Development of a Highly Efficient Hybrid Peptide That Increases Immunomodulatory Activity Via the TLR4-Mediated Nuclear Factor-κB Signaling Pathway” (International Journal of Molecular Sciences, 2019)
No end group written: not given here.

Legend:
[1] = test system: CTX-immunosuppressed Balb/c mice; experiment: Serum cytokine and immunoglobulin ELISA in CTX-immunosuppressed mice; format: in vivo, mouse; conditions: peptide 10 mg/kg ip days 4-10, ELISA, n = 12
Description: Sigma-Aldrich, St. Louis, MO, USA) group, a LL-37 group, a Tα1 group, and a LTAa group. For the first 3 days, CTX (80 mg/kg mouse weight) was administered intraperitoneally once daily to establish the immunosuppressed animal model. From days 4 to 10 (7 days), peptides (10 mg/kg mouse weight) were administered intraperitoneally each day. The CTX group was only treated with CTX, and the control group was given sterile saline. The dose volume was 200 μL. Twenty-four hours after the last dose, the mice were killed and their tissues and blood collected for analysis. The body weight index was calculated in the following way:(2) Index (%)=final body weight-[…] body weight/initial body weight ×100% Serum was obtained from blood by centrifugation at 1000 × g for 20 min. Levels of TNF-α, IL-6, IL-1β, IgG, IgA, and IgM in the serum were detected by ELISA.

recombinant TLR4/MD2 = target: T1, recombinant TLR4/MD2 (Homo sapiens, UniProt O00206+Q9Y6Y9); experiment: Surface plasmon resonance binding to immobilized TLR4/MD2; conditions: SPR, ProteOn XPR36, GLH chip, 25 °C, PBS 0.1% Tween 20 with 2% DMSO, 1:1 model, 0-10 μM peptide
T1 construct: purchased R&D Systems
T1 sequence (O00206 24-631 limits assumed, species assumed): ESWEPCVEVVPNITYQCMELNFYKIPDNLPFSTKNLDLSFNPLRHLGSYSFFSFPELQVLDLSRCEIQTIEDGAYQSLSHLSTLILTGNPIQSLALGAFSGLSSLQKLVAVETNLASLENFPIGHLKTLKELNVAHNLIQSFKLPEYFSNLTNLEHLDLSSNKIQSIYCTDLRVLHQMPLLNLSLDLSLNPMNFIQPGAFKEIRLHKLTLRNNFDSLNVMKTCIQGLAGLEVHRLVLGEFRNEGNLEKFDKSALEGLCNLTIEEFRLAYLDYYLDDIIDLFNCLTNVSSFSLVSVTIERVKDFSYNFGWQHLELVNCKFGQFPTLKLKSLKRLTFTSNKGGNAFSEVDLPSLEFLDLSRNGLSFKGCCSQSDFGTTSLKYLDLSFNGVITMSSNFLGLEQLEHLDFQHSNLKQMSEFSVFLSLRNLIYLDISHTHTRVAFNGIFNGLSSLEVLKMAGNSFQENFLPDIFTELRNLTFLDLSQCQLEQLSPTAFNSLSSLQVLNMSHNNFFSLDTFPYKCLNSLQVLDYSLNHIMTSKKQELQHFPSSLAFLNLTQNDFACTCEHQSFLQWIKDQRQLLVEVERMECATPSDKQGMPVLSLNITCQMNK
T1 sequence (Q9Y6Y9 19-160, species assumed): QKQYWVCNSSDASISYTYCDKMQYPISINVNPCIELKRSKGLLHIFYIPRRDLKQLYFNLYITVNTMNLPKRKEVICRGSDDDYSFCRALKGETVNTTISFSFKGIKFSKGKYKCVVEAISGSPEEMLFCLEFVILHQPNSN
Description: Surface plasmon resonance (SPR) experiments were performed using a ProteOn^TM XPR36 instrument (Bio-Rad, Hercules, CA, USA) with a ProteOn^TM GLH sensor chip (Bio-Rad) at 25 °C. PBS supplemented with 0.1% Tween 20 (containing 2% dimethyl sulfoxide) was used as a running buffer and was continuously passed into the reaction chamber at 30 μL/min. A SPR sensing chip with recombinant TLR4/MD2 (R&D Systems, Minneapolis, MN, USA) that was immobilized by amino coupling was used to capture the peptide, according to the manufacturer’s protocol. […] The running buffer was injected into the empty channel as a reference. Sensor chip regeneration and desorption were achieved by injecting 10 mM Gly-HCl buffer (pH 2.5) before the next round of analyses. The experimental data were analyzed by ProteOn Manager^TM software (version 2.0). Binding curves were processed for the initial injection alignment and baseline, and a reference-subtracted sensorgram was globally fitted to the curves to describe a homogeneous 1:1 model. Data from the protein surfaces were grouped together to fit the kinetic rate constants (Ka and Kd). The equilibrium dissociation constant (KD) for the peptide-TLR4/MD2 interaction was calculated using the following equation:(5) KD=Kd/Ka

splenocyte T lymphocytes = experiment: T lymphocyte subsets in splenocytes by flow cytometry; format: in vivo, mouse; conditions: versus group treated with CTX alone, peptide 10 mg/kg ip days 4-10, n = 12
Description: The spleen was collected, ground, and passed through 40-μm-mesh cell strainers filled with PBS to harvest the cell suspension. The cells were stained with CD3- PerCP, CD4-APC, and CD8-FITC for 30 min at 4 °C for T lymphocyte measurements. The results were analyzed using a Guava® easyCyte^TM 6-21 system and Guavasoft 3.1.1 software (Millipore, Burlington, MA, USA).

[2] = test system: CTX-immunosuppressed Balb/c mice; experiment: Body weight and immune organ indices in CTX-immunosuppressed mice; format: in vivo, mouse; conditions: CTX 80 mg/kg ip days 1-3, peptide 10 mg/kg ip days 4-10, n = 12
Source text: Female specific-pathogen-free (SPF) Balb/c mice (6-8 weeks of age, weighing 20 ± 2.0 g) were purchased from Charles River (Beijing, China). The mice were housed in a SPF environment at room temperature with a relative humidity of 55 ± 10% and allowed free access to food and water during the experiments. All of the animal protocols were approved by the Institutional Animal Care and Ethics Committee of the China Agricultural University (CAU20170430-4). […] Sigma-Aldrich, St. Louis, MO, USA) group, a LL-37 group, a Tα1 group, and a LTAa group. For the first 3 days, CTX (80 mg/kg mouse weight) was administered intraperitoneally once daily to establish the immunosuppressed animal model. From days 4 to 10 (7 days), peptides (10 mg/kg mouse weight) were administered intraperitoneally each day. The CTX group was only treated with CTX, and the control group was given sterile saline. The dose volume was 200 μL. Twenty-four hours after the last dose, the mice were killed and their tissues and blood collected for analysis. The body weight index was calculated in the following way:(2) Index (%)=final body weight-[…] body weight/initial body weight ×100% Spleen and thymus indices were calculated in the following way:(3) Index (mg/kg)=weight of thymus or spleen/body weight

TLR4/MD-2 = target: T2, TLR4/MD-2 (Mus musculus, UniProt Q9JHF9+Q9QUK6); experiment: Cytokine production in RAW264.7 cells with or without TLR4/MD-2 mAb pretreatment; format: cell-based; conditions: then 10 μg/mL peptide 24 h, ELISA, n = 3
T2 construct: endogenous in cells; host or cells: RAW264.7
T2 sequence (Q9QUK6 26-835): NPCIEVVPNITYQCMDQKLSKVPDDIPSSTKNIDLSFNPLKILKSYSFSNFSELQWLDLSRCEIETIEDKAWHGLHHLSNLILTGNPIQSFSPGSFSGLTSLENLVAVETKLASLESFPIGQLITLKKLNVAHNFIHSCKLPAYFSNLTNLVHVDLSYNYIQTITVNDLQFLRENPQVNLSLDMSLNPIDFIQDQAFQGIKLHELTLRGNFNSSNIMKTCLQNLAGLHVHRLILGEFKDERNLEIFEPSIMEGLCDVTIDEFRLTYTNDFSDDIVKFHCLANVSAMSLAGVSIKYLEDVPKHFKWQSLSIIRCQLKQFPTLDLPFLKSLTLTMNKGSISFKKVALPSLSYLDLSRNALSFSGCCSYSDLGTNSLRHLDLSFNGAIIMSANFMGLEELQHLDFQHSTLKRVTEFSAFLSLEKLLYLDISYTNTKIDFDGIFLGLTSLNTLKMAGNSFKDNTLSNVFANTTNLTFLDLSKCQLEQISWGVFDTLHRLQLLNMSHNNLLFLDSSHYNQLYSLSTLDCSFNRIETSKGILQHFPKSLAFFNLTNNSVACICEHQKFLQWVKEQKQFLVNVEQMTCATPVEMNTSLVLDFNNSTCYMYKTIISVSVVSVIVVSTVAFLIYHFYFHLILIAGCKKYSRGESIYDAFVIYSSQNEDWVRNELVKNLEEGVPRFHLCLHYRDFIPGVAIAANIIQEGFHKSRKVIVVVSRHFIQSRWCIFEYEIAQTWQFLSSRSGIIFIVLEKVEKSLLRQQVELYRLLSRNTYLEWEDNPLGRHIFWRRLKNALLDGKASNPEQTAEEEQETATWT
T2 sequence (Q9JHF9 19-160): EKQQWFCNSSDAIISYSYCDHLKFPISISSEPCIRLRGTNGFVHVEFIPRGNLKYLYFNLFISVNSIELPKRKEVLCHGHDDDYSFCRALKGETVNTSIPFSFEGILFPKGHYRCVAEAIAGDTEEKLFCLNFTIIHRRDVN
Description: RAW264.7 cells were treated with PBS or an anti-mouse mAbTLR4/MD-2 complex (MTS510 Ab) (eBioscience, San Diego, CA, USA) at 37 °C for 1 h, and RAW264.7 cells were treated with or without 10 μg/mL peptides for 24 h at 37 °C in a moist atmosphere (5% CO2, 95% air). Levels of TNF-α, IL-6, and IL-1β in the culture supernatant were detected by ELISA.

Ka for binding to TLR4/MD2 (recombinant TLR4/MD2): 7.38e+09 M⁻¹ s⁻¹ | Kd (rate constant) for binding to TLR4/MD2 (recombinant TLR4/MD2): 0.362 s⁻¹ | TNF-α, IL-6 and IL-1β production, PBS pretreatment (TLR4/MD-2; RAW264.7, PBS 1 h): significant increase | TNF-α, IL-6 and IL-1β production induced by LTAa after TLR4/MD-2 mAb pretreatment (TLR4/MD-2; RAW264.7, TLR4/MD-2 mAb (MTS510 Ab) 1 h): significantly inhibited
Sequence: IGKEFKRIVQRIKDFLRNLVPRTEKEKKEVVE [LTAa]
serum TNF-α, IL-6 and IL-1β levels [1]: significantly higher TNF-α, IL-6, and IL-1β concentrations than those in the Tα1- or LL-37-treated groups | CD4+:CD8+ T lymphocyte ratio (splenocyte T lymphocytes): higher | body weight [2]: rapidly recovered their weight | spleen and thymus index [2]: reversed this effect
